Values of other authors in patent US20110237925A1, “MICRONEEDLE ARRAY CHIP, DEVICE AND PATCH FOR TRANSDERMAL DRUG DELIVERY UTILIZING THE SAME, AND PREPARATION METHOD THEROF” (priority 2010, published 2011).

Settings: solid silicon microneedle array prepared through MEMS technology

increase of the transdermal permeability: four orders of magnitude
SMILES: O=C(O)CN(CC(=O)O)Cc1cc2c(cc1O)Oc1cc(O)c(CN(CC(=O)O)CC(=O)O)cc1C21OC(=O)c2ccccc21 [calcein]
